Structures can show the parent of a compound that is named as a salt.
target: T1, human hNET (Homo sapiens, UniProt P23975); assay: Norepinephrine (NE) uptake assay in MDCK-Net6 cells; assay type: cell-based; details: 1 μM test compound; [3H]NE uptake, MDCK-Net6 cells; read-out: % Inhibition @ 1 μM (hNET)
T1 construct: expressed in transfected cells; host or cells: MDCK-Net6 (MDCK cells stably transfected with hNET)
Experimental: MDCK-Net6 cells, stably transfected with human hNET (Pacholczyk, T., R. D. Blakely, and S. G. Amara, Nature, 1991, 350(6316): p. 350-4) were cultured in growth medium containing high glucose DMEM (Gibco, Cat. No. 11995), 10% FBS (dialyzed, heat-inactivated, US Bio-Technologies, Lot FBD1129HI) and 500 μg/ml G418 (Gibco, Cat. No. 10131). Cells were plated at 300,000/T75 flask and cells were split twice weekly. The JAR cell line (human placental choriocarcinoma) was purchased from ATCC (Cat. No. HTB-144). The cells were cultured in growth medium containing RPMI 1640 (Gibco, Cat. No. 72400), 10% FBS (Irvine, Cat. No. 3000), 1% sodium pyruvate (Gibco, Cat. No. 1136) and 0.25% glucose. Cells were plated at 250,000 cells/T75 flask and split twice weekly. For all assays, cells were plated in Wallac 96-well sterile plates (PerkinElmer, Cat. No. 3983498).
On day 1, cells were plated at 3,000 cells/well in growth medium and maintained in a cell incubator (37° C., 5% CO2). On day 2, growth medium was replaced with 200 μl of assay buffer (25 mM HEPES; 120 mM NaCl; 5 mM KCl; 2.5 mM CaCl2; 1.2 mM MgSO4; 2 mg/ml glucose (pH 7.4, 37° C.)) containing 0.2 mg/ml ascorbic acid and 10 μM pargyline. Plates containing cells with 200 μl of assay buffer were equilibrated for 10 minutes at 37° C. prior to addition of compounds. A stock solution of desipramine was prepared in DMSO (10 mM) and delivered to triplicate wells containing cells for a final tert concentration of 1 μM. Data from these wells were used to define non-specific NE uptake (minimum NE uptake). Test compounds were prepared in DMSO (10 mM) and diluted in assay buffer according to tert range (1 to 10,000 nM). Twenty-five microliters of assay buffer (maximum NE uptake) or tert compound were added directly to triplicate wells containing cells in 200 μl of assay buffer. The cells in assay buffer with tert compounds were incubated for 20 minutes at 37° C. To initiate the NE uptake, [^3H]NE diluted in assay buffer (120 nM final assay concentration) was delivered in 25 μl aliquots to each well and the plates were incubated for 5 minutes (37° C.). The reaction was terminated by decanting the supernatant from the plate. The plates containing cells were washed twice with 200 μl assay buffer (37° C.) to remove free radioligand. The plates were then inverted, left to dry for 2 minutes, then reinverted and air-dried for an additional 10 minutes. The cells were lysed in 25 μl of 0.25 N NaOH solution (4° C.), placed on a shake table and vigorously shaken for 5 minutes. After cell lysis, 75 μl of scintillation cocktail was added to each well and the plates were sealed with film tape. The plates were returned to the shake table and vigorously shaken for a minimum of 10 minutes to ensure adequate partitioning of organic and aqueous solutions. The plates were counted in a Wallac Microbeta counter (PerkinElmer) to collect the raw cpm data.
For each experiment, a data stream of cpm values collected from the Wallac Microbeta counter was downloaded to a Microsoft Excel statistical application program. Calculations of EC50 values were made using the transformed-both-sides logistic dose response program written by Wyeth Biometrics Department. The statistical program uses mean cpm values from wells representing maximum binding or uptake (assay buffer) and mean cpm values from wells representing minimum binding or uptake ((1 μM desipramine (hNET) or 1 μM paroxetine (hSERT)). Estimation of the EC50 value was completed on a log scale and the line was fit between the maximum and minimum binding or uptake values. All graphic data representation was generated by normalizing each data point to a mean percent based on the maximum and minimum binding or uptake values. The EC50 values reported from multiple experiments were calculated by pooling the raw data from each experiment and analyzing the pooled data as one experiment.

T1 sequence (P23975 whole entry): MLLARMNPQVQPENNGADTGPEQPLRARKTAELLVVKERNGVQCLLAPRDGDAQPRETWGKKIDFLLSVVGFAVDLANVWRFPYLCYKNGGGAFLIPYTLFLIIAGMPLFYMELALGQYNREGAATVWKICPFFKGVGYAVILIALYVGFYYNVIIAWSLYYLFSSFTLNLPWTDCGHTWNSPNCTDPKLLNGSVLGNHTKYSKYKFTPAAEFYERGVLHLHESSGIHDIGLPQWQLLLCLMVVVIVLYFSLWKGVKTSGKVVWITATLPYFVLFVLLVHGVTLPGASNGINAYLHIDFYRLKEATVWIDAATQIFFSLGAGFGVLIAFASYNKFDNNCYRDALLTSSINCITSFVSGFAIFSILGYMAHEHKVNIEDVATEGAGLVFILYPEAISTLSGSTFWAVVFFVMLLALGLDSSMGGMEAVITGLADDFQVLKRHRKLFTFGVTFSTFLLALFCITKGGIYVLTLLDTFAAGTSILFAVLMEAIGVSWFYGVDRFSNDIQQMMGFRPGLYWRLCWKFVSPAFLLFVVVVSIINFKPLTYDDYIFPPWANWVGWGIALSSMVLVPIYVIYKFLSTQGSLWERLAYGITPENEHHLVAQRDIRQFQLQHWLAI

| SMILES | inhibition at 1 µM [%] |
| --- | --- |
| OC1(C(CN2CCOCC2)c2ccc3ccccc3c2)CCCCC1 (centres unmarked) [Example 106, 1-[2-morpholin-4-yl-1-(2-naphthyl)ethyl]cyclohexanol Hydrochloride] | 2 |
| CCC1CCC(O)(C(CN2CCN(C)CC2)c2cccc3ccccc23)CC1 (centres unmarked) [Example 328, 4-ethyl-1-[2-(4-methylpiperazin-1-yl)-1-(1-naphthyl)ethyl]cyclohexanol Dihydrochloride] | 5.1 |
| CC(C)(C)C1CCC(O)(C(CN2CCNCC2)c2cccc3ccccc23)CC1 (centres unmarked) [Example 76, 4-tert-butyl-1-[1-(1-naphthyl)-2-piperazin-1-ylethyl]cyclohexanol Dihydrochloride] | 22 |
| OC1(C(CN2CCNCC2)c2ccc(Br)s2)CCCCC1 (centres unmarked) [Example 143, 1-[1-(5-bromothien-2-yl)-2-piperazin-1-ylethyl]cyclohexanol Dihydrochloride] | 47 |
| CN1CCN(CC(c2cccc3ccccc23)C2(O)CCC2)CC1 (centres unmarked) [Example 69, 1-[2-(4-methylpiperazin-1-yl)-1-(1-naphthyl)ethyl]cyclobutanol Dihydrochloride] | 26 |
| CN1CCN(CC(c2cccc3ccccc23)C2(O)CCCC2)CC1 (centres unmarked) [Example 56, 1-[2-(4-methylpiperazin-1-yl)-1-(1-naphthyl)ethyl]cyclopentanol Dihydrochloride] | 36 |
| OC1(C(CN2CCNCC2)c2cccc3ccccc23)CCCCC1 (centres unmarked) [Example 21, 1-[1-(1-naphthyl)-2-piperazin-1-ylethyl]cyclohexanol Dihydrochloride] | 86 |
| CN1CCC(O)(C(CN2CCOCC2)c2ccc3ccccc3c2)CC1 (centres unmarked) [Example 102, 1-methyl-4-[2-morpholin-4-yl-1-(2-naphthyl)ethyl]piperidin-4-ol Hydrochloride] | 3 |
| CC1CCC(O)(C(CN2CCN(C)CC2)c2cccc3ccccc23)CC1 (centres unmarked) [Example 333, 4-methyl-1-[2-(4-methylpiperazin-1-yl)-1-(1-naphthyl)ethyl]cyclohexanol Dihydrochloride] | 16 |
| OC1(C(CN2CCNCC2)c2cc(Br)cs2)CCCCC1 (centres unmarked) [Example 281, 1-[1-(4-bromothien-2-yl)-2-piperazin-1-ylethyl]cyclohexanol Dihydrochloride] | 91 |
| OC1(C(CN2CCNCC2)c2csc3ccc(Cl)cc23)CCCCC1 (centres unmarked) [Example 260, 1-[1-(5-chloro-1-benzothien-3-yl)-2-piperazin-1-ylethyl]cyclohexanol Dihydrochloride] | 75 |
| OC1(C(CN2CCNCC2)c2c[nH]c3ccccc23)CCCCC1 (centres unmarked) [Example 155, 1-[1-(1H-indol-3-yl)-2-piperazin-1-ylethyl]cyclohexanol Dihydrochloride] | 21 |
| CN1CCN(CC(c2cccc3ccccc23)C2(O)CCCCCC2)CC1 (centres unmarked) [Example 272, 1-[2-(4-methylpiperazin-1-yl)-1-(1-naphthyl)ethyl]cycloheptanol Dihydrochloride] | 44 |
| OC1(C(CN2CCNCC2)c2cccnc2)CCCCC1 (centres unmarked) [Example 337, 1-(2-piperazin-1-yl-1-pyridin-3-ylethyl)cyclohexanol Trihydrochloride] | 4.8 |
| OC1(C(CN2CCNCC2)c2cccc3ccccc23)CCC1 (centres unmarked) [Example 68, 1-[1-(1-naphthyl)-2-piperazin-1-ylethyl]cyclobutanol Dihydrochloride] | 23 |
| OC1(C(CN2CCNCC2)c2cccc3ccccc23)CCCCCCC1 (centres unmarked) [Example 269, 1-[1-(1-naphthyl)-2-piperazin-1-ylethyl]cyclooctanol Dihydrochloride] | 41 |
| CN1CCC(O)(C(CN2CCNCC2)c2ccc3ccccc3c2)CC1 (centres unmarked) [Example 59, 1-methyl-4-[1-(2-naphthyl)-2-piperazin-1-ylethyl]piperidin-4-ol Dihydrochloride] | 33 |
| OC1(C(CN2CCNCC2)c2ccc3ccccc3c2)CCC1 (centres unmarked) [Example 5, 1-[1-(2-naphthyl)-2-piperazin-1-ylethyl]cyclobutanol Dihydrochloride] | 97 |
| OC1(C(CN2CCNCC2)c2cnc3ccccc3c2)CCCCC1 (centres unmarked) [Example 262, 1-(2-piperazin-1-yl-1-quinolin-3-ylethyl)cyclohexanol Dihydrochloride] | 19 |
| OC1(C(CN2CCNCC2)c2cc3ccccc3s2)CCCCC1 (centres unmarked) [Example 261, 1-[1-(1-benzothien-2-yl)-2-piperazin-1-ylethyl]cyclohexanoldihydrochloride] | 60 |
| OC1(C(CN2CCNCC2)c2ccc(Cl)s2)CCCCC1 (centres unmarked) [Example 142, 1-[1-(5-chlorothien-2-yl)-2-piperazin-1-ylethyl]cyclohexanol Dihydrochloride] | 51 |
| OC1(C(CN2CCNCC2)c2ccc3ccccc3c2)CCCCC1 (centres unmarked) [Example 63, 1-[1-(2-naphthyl)-2-piperazin-1-ylethyl]cyclohexanol Dihydrochloride] | 26 |
| Cn1cc(C(CN2CCNCC2)C2(O)CCCCC2)c2ccccc21 (centres unmarked) [Example 154, 1-[1-(1-methyl-1H-indol-3-yl)-2-piperazin-1-ylethyl]cyclohexanol Dihydrochloride] | 32 |
| CN1CCN(CC(c2cccc3ccccc23)C2(O)CCCCCCC2)CC1 (centres unmarked) [Example 270, 1-[2-(4-methylpiperazin-1-yl-1-(1-naphthyl)ethyl]cyclooctanol Dihydrochloride] | 13 |
| OC1(C(CN2CCNCC2)c2cccc3ccccc23)CCCCCC1 (centres unmarked) [Example 271, 1-[1-(1-naphthyl)-2-piperazin-1-ylethyl]cycloheptanol Dihydrochloride] | 27 |

same assay, conditions: MDCK-Net6, read-out: % Inhibition @ 1 μM (hNET)

| SMILES | inhibition at 1 µM [%] |
| --- | --- |
| OC1(C(CN2CCNCC2)c2csc(Cl)c2)CCCCC1 (centres unmarked) [Example 144, 1-[1-(5-chlorothien-3-yl)-2-piperazin-1-ylethyl]cyclohexanol Dihydrochloride] | 86 |
| OC1(C(CN2CCNCC2)c2csc3ccccc23)CCCCC1 (centres unmarked) [Example 146, 1-[1-(1-benzothien-3-yl)-2-piperazin-1-ylethyl]cyclohexanol Dihydrochloride] | 82 |
| NC1CCN(CC(c2csc(Cl)c2)C2(O)CCCCC2)CC1 (centres unmarked) [Example 145, 1-[2-(4-aminopiperidin-1-yl)-1-(5-chlorothien-3-yl)ethyl]cyclohexanol Dihydrochloride] | 38 |
| OC1(C(CN2CCNCC2)c2ccsc2Cl)CCCCC1 (centres unmarked) [Example 156, 1-[1-(2-chlorothien-3-yl)-2-piperazin-1-ylethyl]cyclohexanol Dihydrochloride] | 55 |
| CN1CCN(C[C@@H](c2csc(Cl)c2)C2(O)CCCCC2)CC1 [Example 258, 1-[(1R)-1-(5-chlorothien-3-yl)-2-(4-methylpiperazin-1-ylethyl]cyclohexanol Dihydrochloride] | 91 |
| CN1CCN(CC(c2csc(Cl)c2)C2(O)CCCCC2)CC1 (centres unmarked) [Example 159, 1-[1-(5-chlorothien-3-yl)-2-(4-methylpiperazin-1-yl)ethyl]cyclohexanol Dihydrochloride] | 88 |

same assay, conditions: [3H]NE uptake, MDCK-Net6 cells

| SMILES | EC50 [nM] |
| --- | --- |
| OC1(C(CN2CCNCC2)c2csc(Cl)c2)CCCCC1 (centres unmarked) [Example 144, 1-[1-(5-chlorothien-3-yl)-2-piperazin-1-ylethyl]cyclohexanol Dihydrochloride] | 100 |
| OC1(C(CN2CCNCC2)c2csc3ccccc23)CCCCC1 (centres unmarked) [Example 146, 1-[1-(1-benzothien-3-yl)-2-piperazin-1-ylethyl]cyclohexanol Dihydrochloride] | 120 |
| OC1(C(CN2CCNCC2)c2cccc(Cl)c2)CCCCC1 (centres unmarked) [Example 1, 1-[1-(3-chlorophenyl)-2-piperazin-1-ylethyl]cyclohexanol Dihydrochloride] | 18 |
| OC1(C(CN2CCNCC2)c2ccsc2Cl)CCCCC1 (centres unmarked) [Example 156, 1-[1-(2-chlorothien-3-yl)-2-piperazin-1-ylethyl]cyclohexanol Dihydrochloride] | 720 |
| OC1(C(CN2CCNCC2)c2cccc3ccccc23)CCCCC1 (centres unmarked) [Example 21, 1-[1-(1-naphthyl)-2-piperazin-1-ylethyl]cyclohexanol Dihydrochloride] | 57 |
| OC1(C(CN2CCNCC2)c2ccc3ccccc3c2)CCC1 (centres unmarked) [Example 5, 1-[1-(2-naphthyl)-2-piperazin-1-ylethyl]cyclobutanol Dihydrochloride] | 160 |
| CN1CCN(CC(c2csc(Cl)c2)C2(O)CCCCC2)CC1 (centres unmarked) [Example 159, 1-[1-(5-chlorothien-3-yl)-2-(4-methylpiperazin-1-yl)ethyl]cyclohexanol Dihydrochloride] | 25 |

— US7419980B2, “Fused-aryl and heteroaryl derivatives and methods of their use” (Wyeth, priority 2003, dated 2008)
